Several values for one entry are separate records, joined by “and”; a condition that tells them apart may be missing. Equal entries are not always repeated.
System: Sarcoma 180 cells
Experiment: Pharmacological activity testing in mice with sarcoma 180
Format: in vivo, ddy strain male mice
Conditions: 100 mg/kg intraperitoneally once daily for 11 days
From the text: Pharmacological activity testing in mice with sarcoma 180
Sarcoma 180 cells (1.16 X 10⁷ cells/animal) were transplanted into groups of 8 ddy strain male mice (5 to 6 weeks of age) subcutaneously at the back on the right side of the body. In one group, the compound S- (α ,β -dicarboxyethyl)glutathione (hereinafter referred to as "DCE-GS" for short) in the forms of a 1.0% (w/v) injectable solution (pH 6.5; isotonized with sodium chloride) was intraperitoneally administered to the animals in a volume corresponding to the dose of 100 mg/kg once daily for 11 days. The control group was intraperitoneally given the same volume of physiological saline once daily for the same period. On day 12, the animals were sacrificed, the tumor was excised from each animal and weighed.

## N[C@@H](CCC(=O)N[C@@H](CSC(CC(=O)O)C(=O)O)C(=O)NCC(=O)O)C(=O)O (stereo partly drawn) [DCE-GS, S-(α ,β -Dicarboxyethyl)glutathione]
Day 12, versus physiological saline group
  Tumor growth inhibition: Tumor growth inhibition = (3.45 - 1.79)/3.45 X 100 = 48.1%
Sarcoma 180 transplanted subcutaneously, day 12, mean of 8 mice, physiological saline group 3.45± 0.42
  Tumor weights (Mean): 1.79 ± 0.14 g
Sarcoma 180 transplanted subcutaneously, tumor excised and weighed on day 12, individual No. 1-8, 100 mg/kg
  Tumor weights (individual animals): 2.48 g and 1.92 g and 2.09 g and 1.47 g and 1.95 g and 1.11 g and 1.62 g and 1.69 g
